# pIC50: −log10 of the molar value. Entries after “also recorded” stand apart in the source; their conditions may differ.
# Target: T1, human Mas receptor (Homo sapiens, UniProt P04201)
# T1 construct: expressed in transfected cells; host or cells: HEK293 (ATCC CRL-1573)
# T1 sequence (P04201 1-325): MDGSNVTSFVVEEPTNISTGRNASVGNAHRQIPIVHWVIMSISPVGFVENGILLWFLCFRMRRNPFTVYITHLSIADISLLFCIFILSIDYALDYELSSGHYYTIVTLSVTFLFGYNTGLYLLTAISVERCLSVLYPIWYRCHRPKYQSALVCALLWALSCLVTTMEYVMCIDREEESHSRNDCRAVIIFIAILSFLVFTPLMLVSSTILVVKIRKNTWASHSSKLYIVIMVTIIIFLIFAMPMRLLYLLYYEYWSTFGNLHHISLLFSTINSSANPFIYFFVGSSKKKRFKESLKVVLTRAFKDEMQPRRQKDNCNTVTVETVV
# Experiment: HTRF IP1 assay, HEK293 cells expressing human Mas receptor
# Type: cell-based
# Details: HTRF IP1 assay, human Mas receptor (Table B.2); read-out: IC50
# From the text: (§1) Human and rat Mas receptors were either transiently or stably expressed in HEK293 cells. For transient transfections, human or rat Mas in pHM6 vector were transfected into HEK293 cells using Lipofectamine® (Invitrogen #18324-012). HEK293 cells transfected with empty pHM6 vector were used as a control. For generation of stable cell lines, cDNA expression plasmids encoding human or rat Mas genes and the neo^r gene were transfected into HEK293 cells (ATCC# CRL-1573) using Lipofectamine® (Invitrogen) according to the manufacturer's instructions. Stable receptor expressing pools were then generated over 3 weeks by standard techniques in the presence of 500 μg/mL Geneticin® (Gibco). Individual receptor stable pools were dilution cloned using standard techniques and clones were comparatively evaluated in inositol phosphate accumulation assays. Preferred clones were banked and cultured as needed. HEK293 cells were used as controls. The 384 well IP-One HTRF® Assay (Cisbio #62P1APEJ) was performed as described by the manufacturer's protocol. Cells were plated in at 100,000 cells per well in 15 μL DMEM (Gibco #11960) and incubated in a CO2 incubator at 37° C. for 2 h. Five μL of compounds diluted in 2× stimulation buffer plus 0.4% BSA (Sigma (#A3059) were added to each well and serial diluted IP1 standards (Cisbio #62IP1CDA) were also added to corresponding wells at this step. After the cells were incubated for 4 h in a CO2 incubator at 37° C., d2-labeled IP1 and cryptate-labeled anti-IP1 monoclonal antibody diluted in lysis buffer were added sequentially in 10 μL per well and the assay plates were kept in the dark at room temperature overnight. Ratiometric measurements of fluorescence emission at 665 nm and 620 nm were obtained using a Pherastar fluorometer (BMG Labtech). IP1 levels in each well were calculated according to the standard curves on each plate. IC50 values were obtained by fitting data to a nonlinear curve-fitting program (GraphPad Software, Inc., La Jolla Calif.).
row,Structure (SMILES),pIC50
1,O=C(Nc1ccc(Cl)cc1N1CCN(CCC(F)(F)F)CC1)c1ccc(CN(CCO)CCO)c(F)c1F [Compound 178],7.46
2,"O=C(O)C[C@H]1CNCCN1Cc1ccc(C(=O)Nc2ccc(Cl)cc2N2CCN(CCC(F)(F)F)CC2)c(F)c1F [Compound 231, (S)-2-(1-(4-(4-Chloro-2-(4-(3,3,3-trifluoropropyl)piperazin-1-yl)phenylcarbamoyl)-2,3-difluorobenzyl)piperazin-2-yl)acetic acid]",7.13

# Target: T2, rat Mas receptor (Rattus norvegicus, UniProt P12526)
# T2 construct: expressed in transfected cells; host or cells: HEK293 (ATCC CRL-1573)
# T2 sequence (P12526 1-324): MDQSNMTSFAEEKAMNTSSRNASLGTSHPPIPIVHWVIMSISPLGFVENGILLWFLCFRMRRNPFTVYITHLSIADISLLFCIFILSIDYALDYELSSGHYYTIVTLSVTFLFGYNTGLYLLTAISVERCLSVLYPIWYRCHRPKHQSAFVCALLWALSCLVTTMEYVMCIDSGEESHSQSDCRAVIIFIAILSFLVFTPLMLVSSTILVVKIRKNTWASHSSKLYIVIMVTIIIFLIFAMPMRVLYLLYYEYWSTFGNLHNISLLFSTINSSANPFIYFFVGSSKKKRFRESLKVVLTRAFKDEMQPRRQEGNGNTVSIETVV
# Experiment: HTRF IP1 assay, HEK293 cells expressing rat Mas receptor
# Type: cell-based
# Details: HTRF IP1 assay, rat Mas receptor (Table B.1); read-out: IC50
# From the text: as §1
row,Structure (SMILES),pIC50
1,"C[C@H](NCc1ccc(C(=O)Nc2ccc(Cl)cc2N2CCN(CCC(F)(F)F)CC2)c(F)c1)C(N)=O [Compound 67, (S)-4-((1-Amino-1-oxopropan-2-ylamino)methyl)-N-(4-chloro-2-(4-(3,3,3-trifluoropropyl)piperazin-1-yl)phenyl)-2-fluorobenzamide]",7.09
2,"O=C(Nc1ccc(Cl)cc1N1CCN(CCC(F)(F)F)CC1)c1ccc(CNC2CCCCNC2=O)cc1F (stereo not drawn) [Compound 79, N-(4-Chloro-2-(4-(3,3,3-trifluoropropyl)piperazin-1-yl)phenyl)-2-fluoro-4-((2-oxoazepan-3-ylamino)methyl)benzamide]",6.87
3,"N[C@@H]1CCCN(Cc2ccc(C(=O)Nc3ccc(Cl)cc3N3CCN(CCC(F)(F)F)CC3)c(F)c2)C1 [Compound 90, (R)-4-((3-Aminopiperidin-1-yl)methyl)-N-(4-chloro-2-(4-(3,3,3-trifluoropropyl)piperazin-1-yl)phenyl)-2-fluorobenzamide]",6.15
4,"O=C(Nc1ccc(Cl)cc1N1CCN(CCC(F)(F)F)CC1)c1ccc(CNC(CO)(CO)CO)cc1F [Compound 103, N-(4-Chloro-2-(4-(3,3,3-trifluoropropyl)piperazin-1-yl)phenyl)-4-((1,3-dihydroxy-2-(hydroxymethyl)propan-2-ylamino)methyl)-2-fluorobenzamide]",6.27
5,"CCN1CCCCC(NCc2ccc(C(=O)Nc3ccc(Cl)cc3N3CCN(CCC(F)(F)F)CC3)c(F)c2)C1=O (stereo not drawn) [Compound 117, N-(4-Chloro-2-(4-(3,3,3-trifluoropropyl)piperazin-1-yl)phenyl)-4-((1-ethyl-2-oxoazepan-3-ylamino)methyl)-2-fluorobenzamide]",6.43
6,"C[C@@H](O)CNCc1ccc(C(=O)Nc2ccc(Cl)cc2N2CCN(CCC(F)(F)F)CC2)c(F)c1 [Compound 130, (R)—N-(4-Chloro-2-(4-(3,3,3-trifluoropropyl)piperazin-1-yl)phenyl)-2-fluoro-4-((2-hydroxypropylamino)methyl)benzamide]",6.60
7,O=C(Nc1ccc(Cl)cc1N1CCN(CCC(F)(F)F)CC1)c1ccc(CN(CCO)CCO)cc1F [Compound 144],6.96
8,"O=C(Nc1ccc(Cl)cc1N1CCN(CCC(F)(F)F)CC1)c1ccc(CN2CCN3CCCC3C2)cc1F (stereo not drawn) [Compound 157, N-(4-Chloro-2-(4-(3,3,3-trifluoropropyl)piperazin-1-yl)phenyl)-2-fluoro-4-((hexahydropyrrolo[1,2-a]pyrazin-2(1H)-yl)methyl)benzamide]",6.74
9,"O=C(Nc1ccc(Cl)cc1N1CCN(CCC(F)(F)F)CC1)c1ccc(CN2CCS(=O)(=O)CC2)c(F)c1F [Compound 168, N-(4-Chloro-2-(4-(3,3,3-trifluoropropyl)piperazin-1-yl)phenyl)-2,3-difluoro-4-((1,1-dioxo-thiomorpholin-4-yl)methyl)benzamide]",7.57
10,O=C(Nc1ccc(Cl)cc1N1CCN(CCC(F)(F)F)CC1)c1ccc(CN(CCO)CCO)c(F)c1F [Compound 178],7.35
11,"O=C1CN(Cc2ccc(C(=O)Nc3cc(Cl)c(Cl)cc3N3CCN(CCC(F)(F)F)CC3)c(F)c2F)CCN1 [Compound 188, N-(4,5-Dichloro-2-(4-(3,3,3-trifluoropropyl)piperazin-1-yl)phenyl)-2,3-difluoro-4-((3-oxopiperazin-1-yl)methyl)benzamide]",7.54
12,"COC(=O)[C@H](CN)NCc1ccc(C(=O)Nc2ccc(Cl)cc2N2CCN(CCC(F)(F)F)CC2)c(F)c1 [Compound 198, (S)-Methyl 3-amino-2-(4-(4-chloro-2-(4-(3,3,3-trifluoropropyl)piperazin-1-yl)phenylcarbamoyl)-3-fluorobenzylamino)propanoate]",6.76
13,"CN(CC(=O)O)Cc1ccc(C(=O)Nc2ccc(Cl)cc2N2CCN(CCC(F)(F)F)CC2)c(F)c1F [Compound 210, 2-((4-(4-Chloro-2-(4-(3,3,3-trifluoropropyl)piperazin-1-yl)phenylcarbamoyl)-2,3-difluorobenzyl)(methyl)amino)acetic acid]",7.17
14,"CC(C)(C)OC(=O)NCC[C@H](NCc1ccc(C(=O)Nc2ccc(Cl)cc2N2CCN(CCC(F)(F)F)CC2)c(F)c1F)C(=O)O [Compound 221, (S)-4-(tert-Butoxycarbonylamino)-2-(4-(4-chloro-2-(4-(3,3,3-trifluoropropyl)piperazin-1-yl)phenylcarbamoyl)-2,3-difluorobenzylamino)butanoic acid]",6.80
15,"O=C(O)C[C@H]1CNCCN1Cc1ccc(C(=O)Nc2ccc(Cl)cc2N2CCN(CCC(F)(F)F)CC2)c(F)c1F [Compound 231, (S)-2-(1-(4-(4-Chloro-2-(4-(3,3,3-trifluoropropyl)piperazin-1-yl)phenylcarbamoyl)-2,3-difluorobenzyl)piperazin-2-yl)acetic acid]",7.30
16,"C[C@@H](CO)NC(=O)C1CNCCN1Cc1ccc(C(=O)Nc2ccc(Cl)cc2N2CCN(CCC(F)(F)F)CC2)c(F)c1F (stereo partly drawn) [Compound 242, 1-(4-(4-Chloro-2-(4-(3,3,3-trifluoropropyl)piperazin-1-yl)phenylcarbamoyl)-2,3-difluorobenzyl)-N—((S)-1-hydroxypropan-2-yl)piperazine-2-carboxamide]",6.50
17,"O=C(Nc1ccc(Cl)cc1N1CCN(CCC(F)(F)F)CC1)c1ccc(CN2CCC[C@@H](CO)C2)c(F)c1F [Compound 252, (R)—N-(4-Chloro-2-(4-(3,3,3-trifluoropropyl)piperazin-1-yl)phenyl)-2,3-difluoro-4-((3-(hydroxymethyl)piperidin-1-yl)methyl)benzamide]",6.94

# Test system: isolated perfused rat hearts
# Experiment: Ex vivo coronary flow, Langendorff perfused isolated rat hearts
# Details: after sodium deoxycholate; AR234960 1 μM; adenosine 1 μM
# Protocol: Coronary flow was measured in male Mas^−/− and Mas^+/+ mice, and in male Sprague-Dawley rats using Langendorff perfused isolated hearts. Freshly isolated hearts were placed on a Langendorff apparatus (Harvard Apparatus) and perfused at a constant pressure of 80 mmHg with a modified Krebs-Henseleit buffer solution (Sigma K3753) and aerated with 95% oxygen and 5% carbon dioxide, pH 7.35-7.4. The temperature was maintained at 37° C. by surrounding the heart with a water-heated glassware chamber. Coronary flow was measured using a flow measurement system (Harvard Apparatus) which included the transit time flow meter and a flow probe built into an adaptor block located at the perfusate inflow port. Data were recorded continuously using an ISOHEART data acquisition system (Harvard Apparatus). After a 20-min equilibration period, Mas compounds were added to the perfusion buffer reservoir at the desired concentration (agonist AR234960 at 1 μM, or inverse agonist AR244555 at 5 μM) and coronary flow was recorded for 10 min
# To determine the role of the Mas-Gq-PLC pathway in regulating coronary flow, the Mas inverse agonist AR244555 (5 μM) or the PLC inhibitor U-73122 (0.5 μM) was added to the perfusion buffer for 10 min and then the agonist AR234960 (1 μM) was added to the perfusion buffer. Coronary flow was recorded for another 10 min Changes in coronary flow induced by AR234960 were calculated as percentage of the coronary flow at 10 min following AR234960 treatment, relative to the coronary flow measured immediately prior to addition of AR234960. This protocol allowed for measurement of agonist mediated vasoconstrictor activity, and accounted for changes in baseline coronary flow due to inverse agonist treatment alone.
# To determine whether Mas agonist-induced changes in coronary flow were endothelium-dependent, the responses in Langendorff perfused hearts were measured after chemical removal of endothelium with sodium deoxycholate. After a 20-min equilibration period, sodium deoxycholate was added to the perfusion buffer at 0.2 mg/mL for 3 min and then washed out for 10 min Mas compounds were added and coronary flow was recorded for 10 min Adenosine (1 μM), a coronary vasodilator that targets the endothelium, was used as a control to verify effective removal of endothelium.
row,Structure (SMILES),compound-mediated change in coronary flow in endothelium denuded hearts
1,Nc1ncnc2c1ncn2[C@@H]1O[C@H](CO)[C@@H](O)[C@H]1O [adenosine],abolished

# Same assay, conditions: pretreatment 10 min: AR244555 5 μM or U-73122 0.5 μM
row,Structure (SMILES),decrease in coronary flow induced by AR234960 (1 μM) after pretreatment
1,"COc1ccc2c(c1)CC[C@@H]1[C@@H]2CC[C@]2(C)[C@@H](NCCCCCCN3C(=O)C=CC3=O)CC[C@@H]12 [Compound U-73122, 1-(6-((8R,9S,13S,14S,17S)-3-methoxy-13-methyl-7,8,9,11,12,13,14,15,16,17-decahydro-6H-cyclopenta[a]phenanthren-17-ylamino)hexyl)-1H-pyrrole-2,5-dione]",blocked the decrease; also recorded: prevented the decrease
